The test system of one data set is linear DNA. The data set is described as follows: Binding assay with a linear DNA. Particulars: in a certain period of time.
The test system of the next data set is supercoiled plasmid DNA. Description: Mixing with supercoiled plasmid DNA, electrophoresis. In kind it is binding. Particulars: electrophoresis after a period of time.
Data set [1] concerns supercoiled plasmid (pcDNA) with or without T4 GP41 DNA helicase. The data set is described as follows: DNA binding test involving helicase (gel electrophoresis). The format is biochemical. Particulars: Test 1 vs Test 4; 0.1 mmol/L, 1 hour, 37° C. An excerpt:
In this experiment, the effect of a helicase on carboplatin 4.0 was verified by a DNA binding test involved by the helicase, including: using the supercoiled and linear plasmid DNA (Hr. pcDNA, which can be extracted in a conventional manner) as a template, changing the DNA conformation through reactions by combining with different platinum-based anticancer drugs, and then distinguishing different platinum drugs by differences in gel electrophoretograms. […]
The following samples (test numbers 1-5 and M) were analyzed under the above experimental conditions, and the addition of pcDNA, drugs, and helicases in each sample was shown as follows: • Test 1: pcDNA+Carboplatin+T4 • Test 2: pcDNA+Carboplatin 4.0+T4 • Test 3: pcDNA+Carboplatin 4.0 • Test 4: pcDNA+Carboplatin • Test 5: pcDNA Test M: Marker (Reference Standard)

Data set [2] can be described thus: Cytotoxicity experiments for antiviral application. The format is cell-based.

Take `N.N.O=C([O-])C1(C(=O)[O-])CCC1.[Pt+2]` [carboplatin]: the “cross-linking with linear DNA” value in the data set with linear DNA is given as “quickly forms a cross-linked adduct with DNA”. For the same molecule, the “crosslinking with supercoiled plasmid DNA” value in the data set with supercoiled plasmid DNA is “crosslinks with the supercoiled plasmid DNA to form a adduct”. Further, the “effect of the helicase on DNA binding of the drug” value in data set [1] is recorded as “no obvious effect”. In addition, in data set [2], the “cytotoxicity evaluation for application in an antiviral aspect” value is recorded as “hinders its application in the antiviral aspect”.
